In patent US20160286797A1, “Herbicidal Agents Containing Aclonifen” (BAYER CROPSCIENCE AKTIENGESELLSCHAFT, priority 2013, published 2016):

Tests used:
[1] = tested on: Lolium spp. resistant to HRAC group A; assay: Greenhouse experiment, post-emergence treatment of ryegrass biotype resistant to HRAC group A; type: in vivo; conditions: post-emergence (PO, BBCH 11), about 3 weeks after application
Description: (§1) In the standard design of the test, seeds of various broad-leaved weed and weed grass biotypes (origins) were sown in a 8-13 cm diameter pot filled with natural soil of a standard field soil (loamy silt; non-sterile) and covered with a covering soil layer of about 1 cm. The pots were then cultivated in a greenhouse (12-16 h light, temperature day 20-22° C., night 15-18° C.) until the time of application. The pots were treated on a laboratory track sprayer with spray liquors comprising the compositions according to the invention, mixtures of the prior art or components used individually. […]
(§2) About 3 weeks after the application, the soil action or/and foliar action was assessed visually according to a scale of 0-100% in comparison to an untreated comparative group: 0%=no noticable effect compared to the untreated comparative group; 100%=full effect compared to the untreated comparative group. […]
(§3) Insofar as herbicidal effects of the compositions according to the invention compared to mixtures of the prior art or compared to components applied individually against economically important mono- and dicotyledonous harmful plants were the center of attention, the synergistic herbicidal activities were calculated using Colby's formula (cf. S. R. Colby; Weeds 15 (1967), 20-22): […]
(§4) Δ=difference (%) of the measured value (%) to the expected value (%) (measured value minus expected value). […]

[2] = tested on: Lolium spp. resistant to HRAC group B; assay: Greenhouse experiment, post-emergence treatment of ryegrass biotype resistant to HRAC group B; type: in vivo; conditions: post-emergence (PO, BBCH 11), about 3 weeks after application
Description: as §1, §2, §3, §4

| Structure (SMILES) | effect (measured value, visual scale 0-100% vs untreated) ([1]; 225 g of AS/ha) | effect (measured value, visual scale 0-100% vs untreated) ([2]; 225 g of AS/ha) | effect (measured value, visual scale 0-100% vs untreated) ([1]; 30 g of AS/ha) | effect (measured value, visual scale 0-100% vs untreated) ([2]; 30 g of AS/ha) |
| --- | --- | --- | --- | --- |
| Nc1c([N+](=O)[O-])ccc(Oc2ccccc2)c1Cl [(A) aclonifen, 2-chloro-6-nitro-3-phenoxybenzenamine] | 25% | 50% |  |  |
| O=C(Nc1ccc(F)cc1F)c1cccnc1Oc1cccc(C(F)(F)F)c1 [(B) diflufenican, N-(2,4-difluorophenyl)-2-[3-(trifluoromethyl)phenoxy]-3-pyridinecarboxamide] |  |  | 10% | 5% |
